The source made the active and inactive calls.
Columns and labels:
Caspase-3 = target: T1, Caspase-3 (Homo sapiens, UniProt P42574); experiment: caspase-3 inhibitors as off-family protease, SAR follow-up, selectivity assay for SENP protease inhibitor project, biochemical, luminescence, set 2 (AID 588599); assay type: functional
T1 sequence (P42574 whole entry): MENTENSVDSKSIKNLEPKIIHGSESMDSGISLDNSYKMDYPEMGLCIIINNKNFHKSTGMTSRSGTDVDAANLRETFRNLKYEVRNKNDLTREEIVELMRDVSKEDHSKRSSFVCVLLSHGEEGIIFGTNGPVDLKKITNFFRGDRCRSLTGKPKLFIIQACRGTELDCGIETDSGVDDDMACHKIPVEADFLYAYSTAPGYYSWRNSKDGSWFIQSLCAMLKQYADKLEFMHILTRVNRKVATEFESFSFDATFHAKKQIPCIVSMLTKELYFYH

[1] = target: T2, Sentrin-specific protease 8 (Homo sapiens, UniProt Q96LD8); experiment: SENP8 protease inhibitors, SAR follow-up, biochemical, luminescence, set 2 (AID 588601); assay type: functional
T2 sequence (Q96LD8 whole entry): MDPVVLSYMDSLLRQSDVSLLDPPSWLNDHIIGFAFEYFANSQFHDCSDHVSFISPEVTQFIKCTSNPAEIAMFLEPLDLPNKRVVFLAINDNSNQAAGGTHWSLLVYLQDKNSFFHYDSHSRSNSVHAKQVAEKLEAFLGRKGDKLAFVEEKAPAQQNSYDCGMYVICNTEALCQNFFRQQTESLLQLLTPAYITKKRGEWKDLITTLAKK

[2] = target: T3, Sentrin-specific protease 7 (Homo sapiens, UniProt Q9BQF6); experiment: SENP7 protease inhibitors, SAR follow-up, biochemical, luminescence, set 2 (AID 588600); assay type: functional
T3 sequence (Q9BQF6 whole entry): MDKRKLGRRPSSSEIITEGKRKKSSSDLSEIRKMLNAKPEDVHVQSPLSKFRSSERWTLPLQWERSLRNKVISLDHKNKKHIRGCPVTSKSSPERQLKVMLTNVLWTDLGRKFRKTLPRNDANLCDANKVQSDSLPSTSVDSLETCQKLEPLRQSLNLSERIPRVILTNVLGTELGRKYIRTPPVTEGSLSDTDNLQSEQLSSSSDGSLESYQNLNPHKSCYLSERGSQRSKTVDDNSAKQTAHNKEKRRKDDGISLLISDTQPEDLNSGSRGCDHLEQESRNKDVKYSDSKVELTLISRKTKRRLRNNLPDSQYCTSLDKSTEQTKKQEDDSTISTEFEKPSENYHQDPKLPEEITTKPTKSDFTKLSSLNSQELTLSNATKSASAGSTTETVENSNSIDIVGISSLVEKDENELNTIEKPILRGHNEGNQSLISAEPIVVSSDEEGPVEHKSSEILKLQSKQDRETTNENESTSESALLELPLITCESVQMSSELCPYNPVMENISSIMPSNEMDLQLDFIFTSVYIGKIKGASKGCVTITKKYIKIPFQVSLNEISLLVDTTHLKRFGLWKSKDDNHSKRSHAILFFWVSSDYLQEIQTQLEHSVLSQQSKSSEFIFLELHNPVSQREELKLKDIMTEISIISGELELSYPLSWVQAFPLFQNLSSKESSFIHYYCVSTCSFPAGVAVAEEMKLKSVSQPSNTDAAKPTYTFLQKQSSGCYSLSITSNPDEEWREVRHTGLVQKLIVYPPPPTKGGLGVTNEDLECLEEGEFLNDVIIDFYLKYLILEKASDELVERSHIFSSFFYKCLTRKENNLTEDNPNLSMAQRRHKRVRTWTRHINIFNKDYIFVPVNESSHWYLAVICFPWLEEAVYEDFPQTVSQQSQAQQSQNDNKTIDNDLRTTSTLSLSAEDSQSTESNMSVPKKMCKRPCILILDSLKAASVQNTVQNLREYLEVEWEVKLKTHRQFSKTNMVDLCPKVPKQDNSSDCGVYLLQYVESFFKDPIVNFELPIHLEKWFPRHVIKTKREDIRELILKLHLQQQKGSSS

[3] = target: T4, Sentrin-specific protease 6 (Homo sapiens, UniProt Q9GZR1); experiment: SENP6 protease inhibitors, SAR follow-up, biochemical, luminescence, set 2 (AID 588598); assay type: functional
T4 sequence (Q9GZR1 whole entry): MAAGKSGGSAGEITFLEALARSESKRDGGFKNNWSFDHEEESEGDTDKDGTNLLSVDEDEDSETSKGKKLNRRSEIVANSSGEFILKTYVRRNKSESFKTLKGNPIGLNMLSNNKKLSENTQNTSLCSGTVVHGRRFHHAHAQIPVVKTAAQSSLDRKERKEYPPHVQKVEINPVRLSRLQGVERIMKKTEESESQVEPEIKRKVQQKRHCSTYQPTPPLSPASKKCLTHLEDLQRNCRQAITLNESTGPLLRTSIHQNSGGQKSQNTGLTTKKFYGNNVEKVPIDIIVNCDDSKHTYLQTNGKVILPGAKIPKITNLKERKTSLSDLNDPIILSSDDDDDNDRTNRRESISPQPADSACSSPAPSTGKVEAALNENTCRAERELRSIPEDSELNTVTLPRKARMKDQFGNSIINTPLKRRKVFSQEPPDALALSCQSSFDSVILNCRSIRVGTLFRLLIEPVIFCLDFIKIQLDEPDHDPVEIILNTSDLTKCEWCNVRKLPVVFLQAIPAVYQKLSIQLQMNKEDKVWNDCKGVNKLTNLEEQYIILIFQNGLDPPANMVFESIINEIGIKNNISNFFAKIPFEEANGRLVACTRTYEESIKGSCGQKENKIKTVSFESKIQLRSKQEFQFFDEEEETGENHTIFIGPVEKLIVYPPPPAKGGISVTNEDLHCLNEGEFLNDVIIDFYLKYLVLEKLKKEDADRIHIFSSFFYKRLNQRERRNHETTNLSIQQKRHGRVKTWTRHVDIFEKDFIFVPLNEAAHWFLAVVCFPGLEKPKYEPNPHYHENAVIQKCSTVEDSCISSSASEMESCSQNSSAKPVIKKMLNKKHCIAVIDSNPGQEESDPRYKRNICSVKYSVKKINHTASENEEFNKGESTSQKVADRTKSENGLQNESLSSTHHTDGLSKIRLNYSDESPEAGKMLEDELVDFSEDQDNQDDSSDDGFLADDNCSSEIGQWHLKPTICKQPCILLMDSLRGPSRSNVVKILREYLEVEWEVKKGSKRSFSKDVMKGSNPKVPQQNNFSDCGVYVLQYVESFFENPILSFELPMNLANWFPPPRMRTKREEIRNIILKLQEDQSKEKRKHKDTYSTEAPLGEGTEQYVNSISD

Insulin-degrading enzyme [4] = target: T5, Insulin-degrading enzyme (Homo sapiens, UniProt P14735); experiment: activators of recombinant IDE enzyme, dose response, counter-screen for IDE activator project, biochemical, fluorescence polarization (AID 588681)
T5 sequence (P14735 whole entry): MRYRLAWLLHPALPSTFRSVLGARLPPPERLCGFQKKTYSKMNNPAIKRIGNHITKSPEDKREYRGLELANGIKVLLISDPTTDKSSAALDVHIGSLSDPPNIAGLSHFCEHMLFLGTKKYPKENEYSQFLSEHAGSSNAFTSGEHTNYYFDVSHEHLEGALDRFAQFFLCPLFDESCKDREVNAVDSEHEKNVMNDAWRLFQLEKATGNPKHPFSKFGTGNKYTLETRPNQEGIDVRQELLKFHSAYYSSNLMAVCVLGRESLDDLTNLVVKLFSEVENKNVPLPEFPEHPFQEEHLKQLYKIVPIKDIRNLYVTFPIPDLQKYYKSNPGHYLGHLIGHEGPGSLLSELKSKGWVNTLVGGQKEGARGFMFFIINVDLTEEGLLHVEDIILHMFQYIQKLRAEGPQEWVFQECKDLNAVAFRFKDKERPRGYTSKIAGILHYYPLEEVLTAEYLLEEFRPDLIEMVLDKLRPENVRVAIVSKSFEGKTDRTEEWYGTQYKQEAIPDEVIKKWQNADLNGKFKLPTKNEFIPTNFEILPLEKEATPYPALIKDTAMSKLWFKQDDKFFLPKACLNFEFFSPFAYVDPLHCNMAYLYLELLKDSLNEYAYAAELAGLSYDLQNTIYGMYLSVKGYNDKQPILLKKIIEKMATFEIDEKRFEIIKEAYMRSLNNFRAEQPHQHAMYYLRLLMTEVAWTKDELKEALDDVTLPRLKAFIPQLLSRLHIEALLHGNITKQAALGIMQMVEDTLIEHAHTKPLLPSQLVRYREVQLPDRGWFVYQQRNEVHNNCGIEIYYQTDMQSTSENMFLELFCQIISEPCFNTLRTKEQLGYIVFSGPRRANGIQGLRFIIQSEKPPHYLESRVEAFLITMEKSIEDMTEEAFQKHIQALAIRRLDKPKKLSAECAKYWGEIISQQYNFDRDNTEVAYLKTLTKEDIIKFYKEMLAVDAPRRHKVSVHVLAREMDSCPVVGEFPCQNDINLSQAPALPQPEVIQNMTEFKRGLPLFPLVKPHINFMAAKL

Insulin-degrading enzyme [5] = target: T5, Insulin-degrading enzyme; experiment: activators of endogenous IDE in HEK cells, dose response, cell-based, fluorescence polarization (AID 588439); assay type: functional
HEK293 [6] = experiment: HEK cell cytotoxicity by LDH release, dose response, cytotoxicity control for IDE activator project, fluorescence, HEK cells (AID 588440); assay type: functional, cell-based; conditions: Homo sapiens;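 further: cytotoxicity by LDH release measuring loss of membrane integrity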
HEK293 [7] = experiment: optical interference in Abeta FP readout, dose response, artefact control for IDE activator project, biochemical, fluorescence polarization (AID 588442); assay type: functional, cell-based; conditions: Homo sapiens
[8] = HEp-2 cell cytotoxicity, dose response, cytotoxicity control for RSV inhibitor project, HTS (AID 2410); assay type: functional; conditions: human respiratory syncytial virus
[9] = target: T6, DNA dC->dU-editing enzyme APOBEC-3A (Homo sapiens, UniProt P31941); experiment: APOBEC3A DNA deaminase inhibitors, dose response, biochemical (AID 504722); assay type: functional
T6 sequence (P31941 whole entry): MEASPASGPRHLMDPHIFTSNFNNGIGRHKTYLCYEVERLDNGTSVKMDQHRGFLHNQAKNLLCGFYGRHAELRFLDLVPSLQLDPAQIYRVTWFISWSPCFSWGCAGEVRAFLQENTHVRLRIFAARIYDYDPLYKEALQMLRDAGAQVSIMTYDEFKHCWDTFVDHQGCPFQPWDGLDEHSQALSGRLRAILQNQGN

[10] = target: T7, DNA dC->dU-editing enzyme APOBEC-3G (Homo sapiens, UniProt Q9HC16); experiment: Dose Response confirmation of small molecule APOBEC3G DNA Deaminase Inhibitors via a fluorescence-based single-stranded DNA deaminase assay. [Related pubchem assays (depositor defined):AID493012, AID493028]; assay type: functional
T7 sequence (Q9HC16 whole entry): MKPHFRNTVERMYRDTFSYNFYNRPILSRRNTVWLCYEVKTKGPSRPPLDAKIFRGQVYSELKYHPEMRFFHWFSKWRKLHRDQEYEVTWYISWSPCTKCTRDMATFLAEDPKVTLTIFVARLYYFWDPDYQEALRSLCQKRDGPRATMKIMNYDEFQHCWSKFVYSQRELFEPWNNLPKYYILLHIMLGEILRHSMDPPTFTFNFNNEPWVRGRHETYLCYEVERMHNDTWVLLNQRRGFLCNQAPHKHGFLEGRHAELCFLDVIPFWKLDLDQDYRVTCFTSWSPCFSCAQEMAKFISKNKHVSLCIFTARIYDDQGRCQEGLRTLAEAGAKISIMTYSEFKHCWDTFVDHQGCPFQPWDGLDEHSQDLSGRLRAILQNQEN

[11] = target: T6, DNA dC->dU-editing enzyme APOBEC-3A; experiment: SAR analysis of small molecule inhibitors of APOBEC3A DNA Deaminase via a fluorescence-based single-stranded DNA deaminase assay - Set 2.; assay type: functional; conditions: read-out: IC50_Mean
[12] = target: T7, DNA dC->dU-editing enzyme APOBEC-3G; experiment: SAR analysis of small molecule inhibitors of APOBEC3G DNA Deaminase via a fluorescence-based single-stranded DNA deaminase assay - Set 2.; assay type: functional; conditions: read-out: IC50_Mean
[13] = target: T7, DNA dC->dU-editing enzyme APOBEC-3G; experiment: APOBEC3G deaminase inhibitors, SAR follow-up, biochemical, fluorescence, single-stranded DNA substrate (AID 602136); assay type: functional; conditions: read-out: IC50_Mean
[14] = target: T6, DNA dC->dU-editing enzyme APOBEC-3A; experiment: SAR analysis of small molecule inhibitors of APOBEC3A DNA Deaminase via a fluorescence-based single-stranded DNA deaminase assay.; assay type: functional; conditions: read-out: IC50_Mean
[15] = target: T8, Rac GTPase-activating protein 1 (Homo sapiens, UniProt Q9H0H5); experiment: MgcRacGAP GTPase-activating activity inhibitors, confirmation, biochemical, ADP Hunter fluorescence, primary and confirmatory (AID 624330); assay type: functional
T8 sequence (Q9H0H5 whole entry): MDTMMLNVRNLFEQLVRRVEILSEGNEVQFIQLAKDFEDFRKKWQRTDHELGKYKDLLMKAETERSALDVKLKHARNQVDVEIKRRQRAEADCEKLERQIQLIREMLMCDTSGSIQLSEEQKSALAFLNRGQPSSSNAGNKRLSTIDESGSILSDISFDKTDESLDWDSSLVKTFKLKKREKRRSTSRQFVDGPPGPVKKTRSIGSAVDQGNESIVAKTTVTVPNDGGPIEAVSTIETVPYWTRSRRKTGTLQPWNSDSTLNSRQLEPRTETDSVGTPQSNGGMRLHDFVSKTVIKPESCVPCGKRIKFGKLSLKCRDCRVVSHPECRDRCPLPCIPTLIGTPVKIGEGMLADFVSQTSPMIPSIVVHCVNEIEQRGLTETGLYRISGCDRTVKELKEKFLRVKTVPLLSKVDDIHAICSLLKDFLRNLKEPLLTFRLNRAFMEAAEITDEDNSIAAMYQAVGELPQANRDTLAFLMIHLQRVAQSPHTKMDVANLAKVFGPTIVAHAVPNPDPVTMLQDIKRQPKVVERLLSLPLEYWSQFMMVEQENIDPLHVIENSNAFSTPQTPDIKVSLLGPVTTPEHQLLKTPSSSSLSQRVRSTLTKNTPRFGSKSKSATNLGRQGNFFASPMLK

## CN(C)C(=O)C(=O)c1c(-c2ccccc2)[nH]c2ccc(Cl)cc12
Caspase-3
  IC50: > 99 µM (inactive)
[1]
  IC50: > 99 µM (inactive)
[2]
  IC50: > 99 µM (inactive)
[3]
  IC50: > 99 µM (inactive)

## COc1ccc(NCC(O)COc2ccc(C(C)(C)C)cc2)cc1 (centres undefined)
Insulin-degrading enzyme [4]
  EC50: > 54.7 µM (inactive)
Insulin-degrading enzyme [5]
  EC50: > 54.7 µM (inactive)
HEK293 [6]
  IC50: 49.1 µM (inactive)
HEK293 [7]
  EC50: > 54.7 µM (inactive)

## COc1cc(C2Nc3cccc4cccc(c34)N2)ccc1O
[8]
  CC50: 32.1 µM (active)
Insulin-degrading enzyme [4]
  EC50: > 54.7 µM (inactive)
Insulin-degrading enzyme [5]
  EC50: > 54.7 µM (inactive)
HEK293 [6]
  IC50: > 89.3 µM (inactive)
HEK293 [7]
  EC50: > 54.7 µM (inactive)

## CNC(=O)C1Cc2ccccc2N1C(=O)C(=O)c1c(C)[nH]c2ccccc12 (centres undefined)
Caspase-3
  IC50: > 99 µM (inactive)
[1]
  IC50: > 99 µM (inactive)
[2]
  IC50: > 99 µM (inactive)
[3]
  IC50: > 99 µM (inactive)

## Cc1ccc(-c2csc3n[nH]c(=S)n23)cc1
[9]
  IC50: > 100 µM (inactive)
[10]
  IC50: 1.35 µM (active)
[11]
  IC50: > 99 µM (inactive)
[12]
  IC50: > 99 µM (inactive)
[13]
  IC50: 3.48 µM (active)
[14]
  IC50: > 99 µM (inactive)
[15]
  IC50: 58.1 µM (active)

Reference: ChEMBL document CHEMBL1201862, “PubChem BioAssay data set” (2004)
